Experimental data published in the NIST ThermoML archive (doi:10.1016/j.jct.2018.12.019).
Numbers after ± are expanded uncertainties.

Columns and labels:
[1] = xn = mol fraction of the nth substance listed; conditions: 98 kPa, Liquid; for mass density: Vibrating tube method; for speed of sound: Frequency=3 MHz, Single path-length method
[2] = excess molar enthalpy (molar enthalpy of mixing); xn = mol fraction of the nth substance listed; conditions: 298.15 K, 98 kPa, Liquid, Calvet calorimetry

SMILES: Cn1ccnc1 [1-methylimidazole] + CCO
- mass density ([1]; 308.15 K, x1 = 0.5994): 947.41 ± 0.81 kg/m3
- mass density ([1]; 308.15 K, x1 = 0.7066): 969.67 ± 0.81 kg/m3
- mass density ([1]; 308.15 K, x1 = 0.8063): 988.78 ± 0.82 kg/m3
- mass density ([1]; 308.15 K, x1 = 0.902): 1005.59 ± 0.82 kg/m3
- mass density ([1]; 308.15 K, x1 = 0.9505): 1013.75 ± 0.83 kg/m3
- mass density ([1]; 308.15 K, x1 = 1): 1021.66 ± 0.83 kg/m3
- speed of sound ([1]; 318.15 K, x1 = 0.0511): 1108 ± 1.1 m/s
- speed of sound ([1]; 318.15 K, x1 = 0.1012): 1137.5 ± 1.1 m/s
- speed of sound ([1]; 318.15 K, x1 = 0.2006): 1192.5 ± 1.1 m/s
- speed of sound ([1]; 318.15 K, x1 = 0.3012): 1244.6 ± 1.1 m/s
- speed of sound ([1]; 318.15 K, x1 = 0.3955): 1290.5 ± 1.2 m/s
- speed of sound ([1]; 318.15 K, x1 = 0.5): 1338.3 ± 1.2 m/s
- speed of sound ([1]; 318.15 K, x1 = 0.5994): 1380.7 ± 1.2 m/s
- speed of sound ([1]; 318.15 K, x1 = 0.7066): 1423 ± 1.3 m/s
- speed of sound ([1]; 318.15 K, x1 = 0.8063): 1459.6 ± 1.3 m/s
- speed of sound ([1]; 318.15 K, x1 = 0.902): 1491.4 ± 1.4 m/s
- speed of sound ([1]; 318.15 K, x1 = 0.9505): 1507 ± 1.4 m/s
- speed of sound ([1]; 318.15 K, x1 = 1): 1521.8 ± 1.4 m/s
- mass density ([1]; 318.15 K, x1 = 0.0511): 786.37 ± 0.81 kg/m3
- mass density ([1]; 318.15 K, x1 = 0.1012): 803.49 ± 0.81 kg/m3
- mass density ([1]; 318.15 K, x1 = 0.2006): 835.02 ± 0.81 kg/m3
- mass density ([1]; 318.15 K, x1 = 0.3012): 864.53 ± 0.81 kg/m3
- mass density ([1]; 318.15 K, x1 = 0.3955): 889.99 ± 0.81 kg/m3
- mass density ([1]; 318.15 K, x1 = 0.5): 915.86 ± 0.81 kg/m3
- mass density ([1]; 318.15 K, x1 = 0.5994): 938.4 ± 0.81 kg/m3
- mass density ([1]; 318.15 K, x1 = 0.7066): 960.68 ± 0.81 kg/m3
- mass density ([1]; 318.15 K, x1 = 0.8063): 979.82 ± 0.82 kg/m3
- mass density ([1]; 318.15 K, x1 = 0.902): 996.65 ± 0.82 kg/m3
- mass density ([1]; 318.15 K, x1 = 0.9505): 1004.83 ± 0.83 kg/m3
- mass density ([1]; 318.15 K, x1 = 1): 1012.76 ± 0.83 kg/m3
- speed of sound ([1]; 328.15 K, x1 = 0.0511): 1074.3 ± 1.1 m/s
- speed of sound ([1]; 328.15 K, x1 = 0.1012): 1103.7 ± 1.1 m/s
- speed of sound ([1]; 328.15 K, x1 = 0.2006): 1158.3 ± 1.1 m/s
- speed of sound ([1]; 328.15 K, x1 = 0.3012): 1210.1 ± 1.1 m/s
- speed of sound ([1]; 328.15 K, x1 = 0.3955): 1255.7 ± 1.2 m/s
- speed of sound ([1]; 328.15 K, x1 = 0.5): 1303 ± 1.2 m/s
- speed of sound ([1]; 328.15 K, x1 = 0.5994): 1345.1 ± 1.2 m/s
- speed of sound ([1]; 328.15 K, x1 = 0.7066): 1386.9 ± 1.3 m/s
- speed of sound ([1]; 328.15 K, x1 = 0.8063): 1423.3 ± 1.3 m/s
- speed of sound ([1]; 328.15 K, x1 = 0.902): 1454.8 ± 1.4 m/s
- speed of sound ([1]; 328.15 K, x1 = 0.9505): 1470.2 ± 1.4 m/s
- speed of sound ([1]; 328.15 K, x1 = 1): 1485 ± 1.4 m/s
- mass density ([1]; 328.15 K, x1 = 0.0511): 777.3 ± 0.81 kg/m3
- mass density ([1]; 328.15 K, x1 = 0.1012): 794.35 ± 0.81 kg/m3
- mass density ([1]; 328.15 K, x1 = 0.2006): 825.9 ± 0.81 kg/m3
- mass density ([1]; 328.15 K, x1 = 0.3012): 855.41 ± 0.81 kg/m3
- mass density ([1]; 328.15 K, x1 = 0.3955): 880.88 ± 0.81 kg/m3
- mass density ([1]; 328.15 K, x1 = 0.5): 906.77 ± 0.81 kg/m3
- mass density ([1]; 328.15 K, x1 = 0.5994): 929.34 ± 0.81 kg/m3
- mass density ([1]; 328.15 K, x1 = 0.7066): 951.65 ± 0.81 kg/m3
- mass density ([1]; 328.15 K, x1 = 0.8063): 970.81 ± 0.82 kg/m3
- mass density ([1]; 328.15 K, x1 = 0.902): 987.68 ± 0.82 kg/m3
- mass density ([1]; 328.15 K, x1 = 0.9505): 995.88 ± 0.82 kg/m3
- mass density ([1]; 328.15 K, x1 = 1): 1003.83 ± 0.83 kg/m3
- excess molar enthalpy ([2]; x1 = 0.0523): -0.0449 ± 0.00239 kcal/mol
- excess molar enthalpy ([2]; x1 = 0.1012): -0.0853 ± 0.0043 kcal/mol
- excess molar enthalpy ([2]; x1 = 0.2013): -0.15 ± 0.00765 kcal/mol
- excess molar enthalpy ([2]; x1 = 0.3057): -0.194 ± 0.0098 kcal/mol
- excess molar enthalpy ([2]; x1 = 0.4037): -0.23 ± 0.0117 kcal/mol
- excess molar enthalpy ([2]; x1 = 0.5087): -0.239 ± 0.0122 kcal/mol
- excess molar enthalpy ([2]; x1 = 0.5987): -0.199 ± 0.01 kcal/mol
- excess molar enthalpy ([2]; x1 = 0.7146): -0.152 ± 0.00765 kcal/mol
- excess molar enthalpy ([2]; x1 = 0.8003): -0.105 ± 0.00526 kcal/mol
- excess molar enthalpy ([2]; x1 = 0.8861): -0.0619 ± 0.00311 kcal/mol
- excess molar enthalpy ([2]; x1 = 0.9463): -0.0344 ± 0.00167 kcal/mol
- excess molar enthalpy ([2]; x1 = 1): 0 ± 0.000239 kcal/mol
